Measurements from the NIST ThermoML archive (doi:10.1016/j.jct.2017.03.029).
Where “and” joins values, the source holds several entries; their conditions need not be identical. Equal entries are not always repeated.

Settings: Transpiration method

Cc1ccc([N+](=O)[O-])cc1 [1-methyl-4-nitrobenzene]
Settings | vapor or sublimation pressure
278.2 K, Crystal | 0.00067 kPa
279.6 K, Crystal | 0.0008 kPa
283.3 K, Crystal | 0.00113 kPa
288.2 K, Crystal | 0.00211 kPa
288.3 K, Crystal | 0.00196 kPa
290.3 K, Crystal | 0.00271 kPa
292.2 K, Crystal | 0.00326 kPa
293.2 K, Crystal | 0.00332 kPa
296.8 K, Crystal | 0.00539 kPa
298.2 K, Crystal | 0.00566 kPa
298.3 K, Crystal | 0.00599 kPa
301.4 K, Crystal | 0.00833 kPa
303.2 K, Crystal | 0.00937 kPa
304.3 K, Crystal | 0.011 kPa
307.4 K, Crystal | 0.015 kPa
308.2 K, Crystal | 0.0151 kPa and 0.0149 kPa
310.3 K, Crystal | 0.0193 kPa
313.2 K, Crystal | 0.0252 kPa and 0.0239 kPa
314.3 K, Crystal | 0.0292 kPa
315.2 K, Crystal | 0.0309 kPa
315.7 K, Crystal | 0.033 kPa
316.2 K, Crystal | 0.0354 kPa
316.7 K, Crystal | 0.0359 kPa
317.2 K, Crystal | 0.0383 kPa
318.2 K, Crystal | 0.04 kPa and 0.0377 kPa
319.3 K, Crystal | 0.0438 kPa
320.3 K, Crystal | 0.0483 kPa
321.2 K, Crystal | 0.0523 kPa
322.2 K, Crystal | 0.0569 kPa
323.1 K, Crystal | 0.0544 kPa and 0.0572 kPa
323.3 K, Crystal | 0.0626 kPa
324.3 K, Crystal | 0.0673 kPa
326.2 K, Liquid | 0.0797 kPa
328.1 K, Liquid | 0.0862 kPa and 0.0853 kPa
329.2 K, Liquid | 0.097 kPa
332.2 K, Liquid | 0.1207 kPa and 0.1198 kPa
333 K, Liquid | 0.117 kPa and 0.113 kPa
335.3 K, Liquid | 0.1411 kPa
338 K, Liquid | 0.162 kPa and 0.155 kPa
338.2 K, Liquid | 0.168 kPa
341.2 K, Liquid | 0.1995 kPa
343 K, Liquid | 0.216 kPa and 0.21 kPa
344.4 K, Liquid | 0.2417 kPa
347.1 K, Liquid | 0.2802 kPa
347.9 K, Liquid | 0.274 kPa
348 K, Liquid | 0.29 kPa
350.2 K, Liquid | 0.3388 kPa
352.9 K, Liquid | 0.369 kPa
353 K, Liquid | 0.374 kPa
353.2 K, Liquid | 0.4024 kPa
357.9 K, Liquid | 0.483 kPa
358 K, Liquid | 0.504 kPa
362.9 K, Liquid | 0.622 kPa
363 K, Liquid | 0.66 kPa
367.9 K, Liquid | 0.841 kPa and 0.793 kPa

Cc1ccccc1[N+](=O)[O-] [2-nitrotoluene]
Liquid
Settings | vapor or sublimation pressure
278.3 K | 0.00328 kPa
278.4 K | 0.0032 kPa
283.3 K | 0.00526 kPa and 0.00502 kPa
288.3 K | 0.00806 kPa and 0.00804 kPa
293.2 K | 0.0124 kPa and 0.0119 kPa
298.2 K | 0.0181 kPa and 0.0175 kPa
303.1 K | 0.0259 kPa
303.2 K | 0.0273 kPa
308.1 K | 0.0381 kPa
308.2 K | 0.0391 kPa
313.1 K | 0.0563 kPa and 0.0555 kPa
318 K | 0.0765 kPa
318.1 K | 0.081 kPa
323 K | 0.108 kPa

Cc1cccc([N+](=O)[O-])c1 [3-nitrotoluene]
Liquid
Settings | vapor or sublimation pressure
290.6 K | 0.00648 kPa
293.3 K | 0.00842 kPa
296.3 K | 0.0103 kPa
298.2 K | 0.012 kPa
299.2 K | 0.0127 kPa and 0.0133 kPa
302.2 K | 0.0163 kPa
302.3 K | 0.0168 kPa
303.2 K | 0.0176 kPa and 0.0173 kPa
305.3 K | 0.0211 kPa
308.2 K | 0.0259 kPa [middle of 4 runs]
308.3 K | 0.0267 kPa
311.4 K | 0.0335 kPa
313.2 K | 0.037 kPa and 0.0363 kPa and 0.0361 kPa
314.3 K | 0.0414 kPa
317.2 K | 0.0498 kPa
318.1 K | 0.0516 kPa
318.2 K | 0.0535 kPa and 0.0524 kPa
320.2 K | 0.0607 kPa
323.1 K | 0.0743 kPa and 0.0718 kPa
323.2 K | 0.0732 kPa and 0.0749 kPa
328.1 K | 0.103 kPa
333.1 K | 0.138 kPa
338 K | 0.187 kPa
